# Reference: patent publication US11058707B2, “Methods for treating ischemic heart disease by targeting TRPV4” (Northeast Ohio Medical University, priority 2018, dated 2021)
# Tests used:
# [1] = test system: human ventricular fibroblasts; experiment: TGF-b1-induced differentiation of human ventricular fibroblasts to myofibroblasts (immunofluorescence, α-SMA); type: cell-based; details: AB1+TGFβ1 vs TGFβ1; immunofluorescence actin/α-SMA/DAPI (FIG. 5A-5C)
# [2] = test system: WT mice subjected to MI; experiment: Myocardial infarction (LAD ligation) in WT mice treated orally with TRPV4 antagonist; echocardiography and histology; type: in vivo
# Experimental: WT mice were subjected to MI by ligating LAD. MI mice were then given orally a specific TRPV4 antagonist, GSK2193874 (GSK2) (10 mg/Kg/day) or vehicle (0.01% DMSO/water).
# Orally active TRPV4 antagonist GSK2193874 was given immediately after MI surgery and followed for 5 weeks.
# [3] = given immediately after MI surgery, followed for 5 weeks, vs WT or vehicle treated mice
structure (smiles),measurement,setting,value
"CC(C)NCCN(C(C)C)S(=O)(=O)c1ccc(Cl)cc1Cl [AB159908, 2,4-dichloro-N-isopropyl-N-(2-isopropylaminoethyl)benzenesulfonamide]",TGF-b1-induced differentiation of human ventricular fibroblasts,[1],attenuation
"O=C(NC1(c2ccccc2)CC1)c1c(CN2CCC(N3CCCCC3)CC2)c(-c2cccc(C(F)(F)F)c2)nc2cc(Br)ccc12 [GSK2193874, 3-([1,4′-bipiperidin]-1′-ylmethyl)-7-bromo-N-(1-phenylcyclopropyl)-2-[3-(trifluoromethyl)phenyl]-4-quinolinecarboxamide]",cardiac fibrosis (Masson's trichrome staining) at the infarct zone and remote zone,[2]; GSK2 treated-MI hearts vs Vehicle treated-MI hearts (FIG. 16),significantly reduced
same,ejection fraction,[2]; [3],preserved
same,fractional shortening,[2]; [3],preserved
same,cardiac function: ejection fraction,"[2]; post-MI WT mice, 10 mg/Kg/day orally vs vehicle (0.01% DMSO/water), echocardiography (FIG. 11A)",preserved
same,cardiac function: fractional shortening,"[2]; post-MI WT mice, 10 mg/Kg/day orally vs vehicle (0.01% DMSO/water), echocardiography (FIG. 11B)",preserved
